We go through eight molecules from ChEMBL document CHEMBL1130903, “Preparation of difluoro analogs of CCGs and their pharmacological evaluations” (Bioorg Med Chem Lett, 1998).

The target of experiment [1] is T1, Glutamate NMDA receptor (Rattus norvegicus) (UniProt P35439+Q00959+Q00960+Q00961+Q62645+Q8VHN2+Q9R1M7). Put plainly: Depolarizing activity against NMDA receptor in isolated spinal cord of newborn rat. Type of experiment: protein-complex assay.
For experiment [2], the target named is T1, Glutamate NMDA receptor (Rattus norvegicus). Kind of experiment: (§1) Relative activity in depolarization to its corresponding CCG(CCG=1) isomer. Type of experiment: protein-complex assay.
Experiment [3] addresses Metabotropic glutamate receptor 1 (Rattus norvegicus) (UniProt P23385). The description is as §1.
For experiment [4] the target is unchanged. Put plainly: Depolarizing activity against mGluR-I receptor in isolated spinal cord of newborn rat. Type of experiment: tissue-based.

Molecules are shown by their SMILES.

Metabotropic glutamate receptor 1 (Rattus norvegicus), sequence (P23385 19-1199 limits assumed): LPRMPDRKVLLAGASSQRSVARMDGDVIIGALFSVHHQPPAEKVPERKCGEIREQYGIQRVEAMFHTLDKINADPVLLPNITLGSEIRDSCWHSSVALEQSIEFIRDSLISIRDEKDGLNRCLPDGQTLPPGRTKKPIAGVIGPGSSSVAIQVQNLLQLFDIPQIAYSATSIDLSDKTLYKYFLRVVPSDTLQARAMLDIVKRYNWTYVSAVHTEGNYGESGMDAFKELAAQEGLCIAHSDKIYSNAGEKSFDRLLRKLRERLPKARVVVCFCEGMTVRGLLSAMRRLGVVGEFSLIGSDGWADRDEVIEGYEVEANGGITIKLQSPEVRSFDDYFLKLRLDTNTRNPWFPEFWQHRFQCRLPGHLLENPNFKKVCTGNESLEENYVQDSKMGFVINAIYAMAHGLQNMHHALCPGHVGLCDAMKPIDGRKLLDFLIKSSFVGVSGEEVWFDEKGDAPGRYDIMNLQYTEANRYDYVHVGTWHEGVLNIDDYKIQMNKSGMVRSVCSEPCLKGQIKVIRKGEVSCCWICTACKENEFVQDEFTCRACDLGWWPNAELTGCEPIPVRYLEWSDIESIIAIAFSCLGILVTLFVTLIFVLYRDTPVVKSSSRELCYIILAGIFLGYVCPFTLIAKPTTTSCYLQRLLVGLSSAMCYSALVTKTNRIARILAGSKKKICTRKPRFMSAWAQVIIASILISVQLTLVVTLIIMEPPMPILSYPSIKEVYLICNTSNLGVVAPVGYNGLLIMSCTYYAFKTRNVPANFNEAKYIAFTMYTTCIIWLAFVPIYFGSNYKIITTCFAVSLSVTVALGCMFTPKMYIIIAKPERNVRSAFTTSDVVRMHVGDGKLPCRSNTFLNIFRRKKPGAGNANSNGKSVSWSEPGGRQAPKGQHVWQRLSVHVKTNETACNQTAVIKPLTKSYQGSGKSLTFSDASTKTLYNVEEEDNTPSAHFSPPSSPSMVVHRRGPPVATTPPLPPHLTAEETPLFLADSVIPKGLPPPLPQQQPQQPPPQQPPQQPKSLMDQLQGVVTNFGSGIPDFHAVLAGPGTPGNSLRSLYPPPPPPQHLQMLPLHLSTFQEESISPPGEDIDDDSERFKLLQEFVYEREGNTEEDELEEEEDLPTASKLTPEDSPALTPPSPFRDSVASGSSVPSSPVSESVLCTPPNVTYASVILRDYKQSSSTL

As for `N[C@H](C(=O)O)[C@H]1[C@@H](C(=O)O)C1(F)F`, the Threshold concentration in experiment [1] is 1 µM. Also, the Ratio of depolarizing activity in experiment [2] was 1.5.
For `N[C@H](C(=O)O)[C@@H]1[C@@H](C(=O)O)C1(F)F`, in experiment [3], the Ratio of depolarizing activity was found to be 3. For the same molecule, in experiment [4], the Threshold concentration is 2 µM.
Molecule `N[C@H](C(=O)O)[C@@H]1[C@H](C(=O)O)C1(F)F` yielded a Threshold concentration in experiment [1] of 100 µM. Further, in experiment [2], the Ratio of depolarizing activity came out at 2.
For `NC(C(=O)O)[C@@H]1[C@H](C(=O)O)C1(F)F` (single isomer, unassigned), in that order: 1000 µM and less than 0.1.
The like results for `NC(C(=O)O)[C@H]1[C@@H](C(=O)O)C1(F)F` (single isomer, unassigned) were, in that order, 1000 µM and less than 0.01.
`N[C@H](C(=O)O)[C@H]1[C@H](C(=O)O)C1(F)F`: the Threshold concentration in experiment [1] and in experiment [4] was 300 µM in each case. Further, the Ratio of depolarizing activity in experiment [3] worked out at 0.5.
In experiment [1], `N[C@@H](C(=O)O)[C@H]1[C@H](C(=O)O)C1(F)F` had a Threshold concentration of 30 µM. The Ratio of depolarizing activity in experiment [2] was 1.2.
The like results for `N[C@@H](C(=O)O)[C@@H]1[C@@H](C(=O)O)C1(F)F` were, in that order, 10 µM and 0.1.
